The test system of one experiment is Kochia. In words: Greenhouse post emergence treatment, visual herbicidal activity against Kochia. Particulars: scale from 0 to 100. The class given is in vivo, Bassia scoparia. From the text:
(§1) Synergism can be described as an interaction where the combined effect of two or more compounds is greater than the sum of the individual effects of each of the compounds. The presence of a synergistic effect in terms of percent control, between two mixing partners (X and Y) can be calculated using the Colby equation (Colby, S. R., 1967, Calculating Synergistic and Antagonistic Responses in Herbicide Combinations, Weeds, 15, 21-22):
(§2) When the observed combined control effect is greater than the expected (calculated) combined control effect (E), then the combined effect is synergistic.
(§3) Pots with 0.3 L of volume were filled with soil (SunGro Horticulture, Agawam, Mass. 01001) to grow one plant per pot in the greenhouse until the desired developmental stage. Environmental conditions inside the greenhouse were set up for 25° C., 75% relative humidity, and 12 h light day-1 with natural sunlight or 500 μmol m-1 s-1 PAR (photosynthetically active radiation) for cloudy days. Glufosinate applications were always performed in full sunlight to achieve maximum activity. The test period extended to 2 to 21 days after treatment. During this time, the plants were tended, and their response to the individual treatments was evaluated. The evaluation was carried out by visual control using a scale from 0 to 100. 100 means no emergence of the plants or complete destruction of at least the above-ground parts, and 0 means no damage, or normal course of growth. Data shown are the mean of three replications.

In a further experiment the test system is Waterhemp. In words: Greenhouse post emergence treatment, visual herbicidal activity against Waterhemp. The class given is in vivo, Amaranthus tuberculatus. As to conditions: scale from 0 to 100.
Source text: as §1, §2
as §3, with “100 means no emergence of the plants or complete destruction of at least the above-ground parts, and 0 means no damage, or normal course of growth. Data shown are the mean of three replications.” left out

For the next experiment, the system named is Velvetleaf. In words: Greenhouse post emergence treatment (Acifluorfen test method), herbicidal activity against Velvetleaf. It counts as in vivo, Abutilon theophrasti. The method, then: Pots with 0.8 L of volume were filled with soil (Sungro Horticulture, Agawam, Mass. 01001) to grow one plant per pot in the greenhouse until the desired developmental stage. Environmental conditions inside the greenhouse were set up for 30° C., 50% relative humidity, and 12 hr light day-1 with natural sunlight or 760 umol m-1 s-1 PAR (Photosynthetically active radiation) for cloudy days. Glufosinate applications were always performed in full sunlight to achieve maximum activity Pots with test plants grown to 3.5 to 4.5 inch (8.9 to 11.4 cm) tall were treated with the herbicidal compositions, which were obtained by diluting commercially available formulations with deionized water to desired concentration, and then sprayed using finely distributing nozzles on to the plants. The test period extended over 21 days after treatment (DAT). During this time, the plants were tended and their response to the individual treatments was evaluated.
The evaluation was done by calculating using the following Colby equation, wherein X was the effect in percent using acifluorfen at an application rate a, Y was the effect in percent using glufosinate at application rate b, and E was the expected effect (in %) of acifluorfen plus glufosinate at application rates a+b.
The value E corresponds to the effect (plant damage or injury) which is to be expected if the activity of the individual compounds is just additive. If the observed effect is higher than the value E calculated according to Colby, a synergistic effect is present.
The evaluation for the damage caused by the chemical compositions was carried out using a scale from 0 to 100%, compared to the untreated control plants. Here, 0 means no damage and 100 means complete destruction of the plants.
Adjuvants of ammonium sulfate (as AMS Liquid) and non-ionic surfactant (NIS, here as Induce) at rates of 1680 g/ha and 0.25% (v/v), respectively, were added in all treatments with Acifluorfen.

Turning to `CCOC(=O)C(C)OC(=O)c1cc(Oc2ccc(C(F)(F)F)cc2Cl)ccc1[N+](=O)[O-]` (centres unmarked) [Lactofen], the “Herbicidal activity against Kochia (21 DAT), Found” value (“Herbicidal activity against Kochia” below) in the experiment with Kochia (Lactofen 5.2 g ai/ha solo) is 25. The “Herbicidal activity against Waterhemp (1 DAT), Found” value in the experiment on Waterhemp (Lactofen 5 g ai/ha solo) is 3.

Take `CP(=O)(O)CCC(N)C(=O)O` (racemic) [Glufosinate, (2RS)-2-amino-4-[hydroxy(methyl)phosphinoyl]butyric acid]: the “Herbicidal activity against Kochia” value with Kochia (Glufosinate 420 g ai/ha solo) is on record as 25. Further, the “Herbicidal activity against Waterhemp (1 DAT), Found” value in the experiment with Waterhemp (Glufosinate 280 g ai/ha solo) was 18. For the same molecule, the “Herbicidal activity against Velvetleaf, solo application, % activity” value with Velvetleaf (Glufosinate 123 g ai/ha solo, 7 DAT) is on record as 49%; in the experiment with Velvetleaf (Glufosinate 123 g ai/ha solo, 14 DAT) it was 56%; with Velvetleaf (Glufosinate 123 g ai/ha solo, 21 DAT) it was 45%.

Regarding `O=C(O)c1cc(Oc2ccc(C(F)(F)F)cc2Cl)ccc1[N+](=O)[O-]` [Acifluorfen], the “Herbicidal activity against Velvetleaf, solo application, % activity” value was determined as 38% in the experiment with Velvetleaf (Acifluorfen 7.176 g ai/ha solo, 7 DAT); 40% with Velvetleaf (Acifluorfen 7.176 g ai/ha solo, 14 DAT); 33% with Velvetleaf (Acifluorfen 7.176 g ai/ha solo, 21 DAT).

`CS(=O)(=O)NC(=O)c1cc(Oc2ccc(C(F)(F)F)cc2Cl)ccc1[N+](=O)[O-]` [Fomesafen]: in the experiment on Kochia (Fomesafen 7.1 g ai/ha solo), the “Herbicidal activity against Kochia” value was 25.

For the origin of these results see US20230075365A1, “HERBICIDE COMBINATIONS COMPRISING GLUFOSINATE AND SELECTED PPO INHIBITORS” (BASF SE, priority 2020, published 2023).
